# Measurements published in ChEMBL document CHEMBL1201862, “PubChem BioAssay data set” (2004).
#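 Briefly, cells in 96-well plates were exposed to five compound concentrations for 48 h, and endpoints were estimated by linear interpolation. At the GI50, growth is halved.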 The source made the active and inactive calls. Cut-off read from the data, not from the text of the source: active = GI50 up to about 1.1 µM and inactive = higher.
# What was measured:
# Experiment in all cases: inhibition of tumour cell growth, NCI panel, 48 h
# SNB-75 = test system: SNB-75
# SF-295 = test system: SF-295
# SK-MEL-28 = test system: SK-MEL-28
# IGROV-1 = test system: IGROV-1
# HCT-15 = test system: HCT-15
# MDA-N = test system: MDA-N
# DU-145 = test system: DU-145
# CCRF-CEM = test system: CCRF-CEM
# NCI-H460 = test system: NCI-H460
# MDA-MB-231 = test system: MDA-MB-231
# SK-MEL-2 = test system: SK-MEL-2
# NCI-H522 = test system: NCI-H522
# UO-31 = test system: UO-31
# NCI-H226 = test system: NCI-H226
# MOLT-4 = test system: MOLT-4
# RPMI-8226 = test system: RPMI-8226
# SK-MEL-5 = test system: SK-MEL-5
# OVCAR-5 = test system: OVCAR-5
# MDA-MB-435 = test system: MDA-MB-435
# CAKI-1 = test system: CAKI-1
Compound,GI50 (SNB-75),GI50 (SF-295),GI50 (SK-MEL-28),GI50 (IGROV-1),GI50 (HCT-15),GI50 (MDA-N),GI50 (DU-145),GI50 (CCRF-CEM),GI50 (NCI-H460),GI50 (MDA-MB-231),GI50 (SK-MEL-2),GI50 (NCI-H522),GI50 (UO-31),GI50 (NCI-H226),GI50 (MOLT-4),GI50 (RPMI-8226),GI50 (SK-MEL-5),GI50 (OVCAR-5),GI50 (MDA-MB-435),GI50 (CAKI-1)
O=C(Cc1ccccc1)N/N=C/c1ccccc1O,12.5 µM (inactive),10.3 µM (inactive),40.4 µM (inactive),7.85 µM (inactive),4.25 µM,21.8 µM (inactive),23.3 µM (inactive),4.94 µM (inactive),5.6 µM (inactive),> 100 µM (inactive),> 100 µM (inactive),13.2 µM (inactive),6.52 µM (inactive),14.1 µM (inactive),4.55 µM (inactive),15.9 µM (inactive),12 µM (inactive),20.6 µM (inactive),28.6 µM (inactive),5.92 µM (inactive)
O=c1c(=O)c2cscc2c1=O,4.32 µM (inactive),> 25 µM (inactive),4.53 µM (inactive),4.66 µM (inactive),5.78 µM,4.99 µM (inactive),5.33 µM (inactive),,7.76 µM (inactive),5.14 µM (inactive),4.92 µM (inactive),0.486 µM (active),4.75 µM (inactive),5.55 µM (inactive),4.58 µM (inactive),6.47 µM (inactive),4.42 µM (inactive),4.74 µM (inactive),4.65 µM (inactive),4.4 µM (inactive)
CCOC(=O)/C=C/C(Br)=C(Br)/C=C/C(=O)OCC,12.4 µM (inactive),14.8 µM (inactive),12.4 µM (inactive),14.2 µM (inactive),4.92 µM,10.3 µM (inactive),13.1 µM (inactive),0.796 µM (active),33.9 µM (inactive),16.3 µM (inactive),20.2 µM (inactive),2.12 µM (inactive),10.7 µM (inactive),29.5 µM (inactive),1.83 µM (inactive),2.59 µM (inactive),12.9 µM (inactive),18.6 µM (inactive),7.13 µM (inactive),3.84 µM (inactive)
O=C(CC(=O)Nc1ccccc1)NNC(Sc1ccccc1)c1cc(/N=N/c2ccc(Br)cc2)ccc1O (stereo not drawn),3.15 µM (inactive),3.85 µM (inactive),2.92 µM (inactive),5.07 µM (inactive),0.678 µM,2.41 µM (inactive),2.11 µM (inactive),0.417 µM (active),0.773 µM (active),2.24 µM (inactive),> 10 µM (inactive),4.81 µM (inactive),2.29 µM (inactive),0.444 µM (active),0.0916 µM (active),4.2 µM (inactive),1.06 µM (active),7.98 µM (inactive),4.28 µM (inactive),4.82 µM (inactive)
CC(=O)c1c(C)n(C)c2c1nnc1ccccc12,,40.2 µM (inactive),> 100 µM (inactive),,42.1 µM,67.9 µM (inactive),80.5 µM (inactive),54.2 µM (inactive),25.7 µM (inactive),59 µM (inactive),> 100 µM (inactive),> 100 µM (inactive),3.15 µM (inactive),31.6 µM (inactive),,38.6 µM (inactive),32 µM (inactive),,61.7 µM (inactive),35.7 µM (inactive)
CC(C)Oc1cccc(N2C(CCc3c[nH]c4ccc(Br)cc34)=NS(=O)(=O)c3cnccc32)c1,48 µM (inactive),25.7 µM (inactive),> 100 µM (inactive),,30.8 µM,37.3 µM (inactive),94.4 µM (inactive),95.5 µM (inactive),35.1 µM (inactive),> 100 µM (inactive),53.2 µM (inactive),27.9 µM (inactive),3.64 µM (inactive),37.3 µM (inactive),14.8 µM (inactive),24 µM (inactive),35 µM (inactive),29.1 µM (inactive),46.2 µM (inactive),22.7 µM (inactive)
O=c1oc2ccc([N+](=O)[O-])cc2c(Nc2ccc3c(c2)Sc2ccccc2O3)c1[N+](=O)[O-],39.6 µM (inactive),38.2 µM (inactive),25.9 µM (inactive),21.6 µM (inactive),17.7 µM,28.6 µM (inactive),36.7 µM (inactive),18.9 µM (inactive),20.2 µM (inactive),18.6 µM (inactive),20.4 µM (inactive),17.6 µM (inactive),22.6 µM (inactive),18.8 µM (inactive),,9.2 µM (inactive),20.3 µM (inactive),22.1 µM (inactive),30.8 µM (inactive),22.3 µM (inactive)
COc1ccc(C(CC(=O)C(C)(C)CN2CCCCC2)SCCS(=O)(=O)O)cc1 (stereo not drawn),22.3 µM (inactive),13.9 µM (inactive),,53.2 µM (inactive),34.2 µM,29.6 µM (inactive),66.1 µM (inactive),17.1 µM (inactive),22.6 µM (inactive),27.5 µM (inactive),> 100 µM (inactive),21.5 µM (inactive),37.4 µM (inactive),21.9 µM (inactive),22.1 µM (inactive),24.9 µM (inactive),20.9 µM (inactive),21.3 µM (inactive),18.3 µM (inactive),34.9 µM (inactive)
C=C1CCC2C(C)(CO)C(O)CCC2(C)C1C/C=C1\C(=O)OCC1O (stereo not drawn),15.4 µM (inactive),19.9 µM (inactive),13.9 µM (inactive),18.2 µM (inactive),14.6 µM,9.31 µM (inactive),38.8 µM (inactive),3.87 µM (inactive),21.2 µM (inactive),26.4 µM (inactive),15.2 µM (inactive),10.4 µM (inactive),36.3 µM (inactive),39.8 µM (inactive),28.2 µM (inactive),5.42 µM (inactive),14.1 µM (inactive),17.1 µM (inactive),10.3 µM (inactive),
N#Cc1nc(/C=C/c2nc(C#N)c(N)o2)oc1N,> 10 µM (inactive),> 10 µM (inactive),> 10 µM (inactive),> 10 µM (inactive),> 10 µM,> 10 µM (inactive),> 10 µM (inactive),> 10 µM (inactive),> 10 µM (inactive),> 10 µM (inactive),,> 10 µM (inactive),> 10 µM (inactive),> 10 µM (inactive),,> 10 µM (inactive),> 10 µM (inactive),,> 10 µM (inactive),> 10 µM (inactive)
Clc1ccc(OCc2nnc(CCCCCCCCc3nnc(COc4ccc(Cl)cc4Cl)o3)o2)c(Cl)c1,> 100 µM (inactive),85.1 µM (inactive),> 100 µM (inactive),9.4 µM (inactive),97.5 µM,> 100 µM (inactive),85.9 µM (inactive),,79.6 µM (inactive),> 100 µM (inactive),> 100 µM (inactive),18.7 µM (inactive),44.1 µM (inactive),> 100 µM (inactive),14.3 µM (inactive),58.9 µM (inactive),> 100 µM (inactive),> 100 µM (inactive),> 100 µM (inactive),24.6 µM (inactive)
CCC[C@@H]1C(=O)N=C(N)N1C(=O)OCc1ccccc1,> 100 µM (inactive),> 100 µM (inactive),> 100 µM (inactive),> 100 µM (inactive),> 100 µM,> 100 µM (inactive),> 100 µM (inactive),,> 100 µM (inactive),> 100 µM (inactive),> 100 µM (inactive),> 100 µM (inactive),> 100 µM (inactive),> 100 µM (inactive),> 100 µM (inactive),> 100 µM (inactive),> 100 µM (inactive),> 100 µM (inactive),> 100 µM (inactive),> 100 µM (inactive)
CCOC(CN(C)C(=O)Nc1cccc2ccccc12)OCC,> 10 µM (inactive),> 10 µM (inactive),> 10 µM (inactive),> 10 µM (inactive),> 10 µM,> 10 µM (inactive),> 10 µM (inactive),> 10 µM (inactive),> 10 µM (inactive),> 10 µM (inactive),> 10 µM (inactive),> 10 µM (inactive),> 10 µM (inactive),> 10 µM (inactive),> 10 µM (inactive),> 10 µM (inactive),> 10 µM (inactive),,> 10 µM (inactive),> 10 µM (inactive)
Cc1ccc2c(c1)NC(=O)CCSSCCC(=O)N2,,> 100 µM (inactive),> 100 µM (inactive),> 100 µM (inactive),> 100 µM,> 100 µM (inactive),> 100 µM (inactive),> 100 µM (inactive),> 100 µM (inactive),> 100 µM (inactive),> 100 µM (inactive),> 100 µM (inactive),> 100 µM (inactive),> 100 µM (inactive),> 100 µM (inactive),> 100 µM (inactive),> 100 µM (inactive),> 100 µM (inactive),> 100 µM (inactive),> 100 µM (inactive)
COC(=O)C1Cc2c(OC)ccc(OC)c2CC(C(=O)OC)C1=O (stereo not drawn),> 100 µM (inactive),> 100 µM (inactive),> 100 µM (inactive),> 100 µM (inactive),> 100 µM,> 100 µM (inactive),> 100 µM (inactive),> 100 µM (inactive),> 100 µM (inactive),> 100 µM (inactive),,> 100 µM (inactive),56 µM (inactive),> 100 µM (inactive),> 100 µM (inactive),> 100 µM (inactive),> 100 µM (inactive),> 100 µM (inactive),> 100 µM (inactive),> 100 µM (inactive)
